Data on 14 compounds can be found in article PMC10282079, “Design, synthesis, in vitro anti-α-glucosidase evaluations, and computational studies of new phthalimide-phenoxy-1,2,3-triazole-N-phenyl (or benzyl) acetamides as potential anti-diabetic agents” (Scientific Reports, 2023).

Bounds are passed on as bounds.

In one data set the target is T1, yeast α-glucosidase (Saccharomyces cerevisiae, UniProt P53341).
T1 construct: purchased Sigma-Aldrich
The experiment in a line: biochemical. It counts as biochemical. As to conditions: for α-glucosidase inhibitory activity in words: SAR discussion of Table 1; for IC50: yeast α-glucosidase, mean ± SD of three independent experiments. The protocol: The in vitro enzymatic inhibitory activity of phthalimide-phenoxy-1,2,3-triazole-N-phenyl (or benzyl) acetamide 11a–n was evaluated against yeast α-glucosidase.
The change in absorbance was measured at 405 nm using by a standard spectrophotometer (Gen5, Power wave xs2, BioTek, America).

For another data set, the target named is T2, α-glucosidase (Saccharomyces cerevisiae, UniProt P53341).
T2 construct: purchased Sigma-Aldrich
T2 sequence (P53341 whole entry): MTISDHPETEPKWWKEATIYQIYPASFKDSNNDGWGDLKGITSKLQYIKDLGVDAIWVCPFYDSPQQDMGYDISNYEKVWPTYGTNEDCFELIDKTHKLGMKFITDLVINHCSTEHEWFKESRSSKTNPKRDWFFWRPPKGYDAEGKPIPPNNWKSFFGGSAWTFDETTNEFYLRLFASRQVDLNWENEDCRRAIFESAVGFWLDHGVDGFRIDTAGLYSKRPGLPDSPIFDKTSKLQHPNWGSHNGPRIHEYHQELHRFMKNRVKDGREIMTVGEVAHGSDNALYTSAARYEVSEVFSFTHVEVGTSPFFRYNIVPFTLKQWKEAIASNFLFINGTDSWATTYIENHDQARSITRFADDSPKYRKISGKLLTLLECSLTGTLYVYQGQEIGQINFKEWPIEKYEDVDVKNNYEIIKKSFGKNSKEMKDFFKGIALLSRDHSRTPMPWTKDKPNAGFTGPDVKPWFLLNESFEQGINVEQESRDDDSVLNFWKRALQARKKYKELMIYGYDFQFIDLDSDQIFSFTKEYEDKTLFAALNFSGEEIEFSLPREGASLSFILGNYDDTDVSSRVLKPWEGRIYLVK
The experiment in a line: Kinetic study of α-glucosidase inhibition (Lineweaver–Burk). The data set is classed as biochemical. The protocol: For this purpose, the reaction rates in the presence of different concentrations of compound 11j were measured in various concentrations of substrate (p-nitrophenyl-a-D-glucopyranoside). Graphs of different concentrations of inhibitor were drawn by the Lineweaver–Burk plot (Fig. 2a). […] The Ki value was calculated directly by plotting the slope of each line in the Lineweaver–Burk plots into the different concentrations of compound 11j (Fig. 2b).
The 20 µL of α-glucosidase solution (1 U/mL) was incubated with different concentrations of compound 11j (0, 12, 23 and 46 µM) for 15 min at 30 °C. The reaction was then started by adding different concentrations of substrate (1–10 mM) and change in absorbance was measured for 20 min at 405 nm using by spectrophotometer (Gen5, Power wave xs2, BioTek, America).

T1 sequence (P53341 whole entry): as above

`CCc1ccc(NC(=O)Cn2cc(COc3ccc(N4C(=O)c5ccccc5C4=O)cc3)nn2)cc1` [Compound 11d, 2-(4-((4-(1,3-dioxoisoindolin-2-yl)phenoxy)methyl)-1H-1,2,3-triazol-1-yl)-N-(4-ethylphenyl)acetamide] had a melting point of 202 to 204 °C. Also, at yeast α-glucosidase, the “α-glucosidase inhibitory activity in words” value was “significant decrease in the inhibitory activity” and the half-inhibitory concentration (IC50) is 491.68 ± 0.11 µM.
Take `O=C(Cn1cc(COc2ccc(N3C(=O)c4ccccc4C3=O)cc2)nn1)Nc1cccc(F)c1` [Compound 11e, 2-(4-((4-(1,3-dioxoisoindolin-2-yl)phenoxy)methyl)-1H-1,2,3-triazol-1-yl)-N-(3-fluorophenyl)acetamide]: the melting point is 204 to 206 °C. Also, the IC50 on yeast α-glucosidase came to 188.3 ± 0.27 µM.
In turn, `O=C(Cn1cc(COc2ccc(N3C(=O)c4ccccc4C3=O)cc2)nn1)NCc1ccccc1` [Compound 11m, N-benzyl-2-(4-((4-(1,3-dioxoisoindolin-2-yl)phenoxy)methyl)-1H-1,2,3-triazol-1-yl)acetamide] had a melting point of 201 to 203 °C. In addition, on yeast α-glucosidase, the “α-glucosidase inhibitory activity in words” value is “inactive” and the IC50 is > 750 µM.
`O=C(Cn1cc(COc2ccc(N3C(=O)c4ccccc4C3=O)cc2)nn1)Nc1ccc(Cl)cc1Cl` [Compound 11h, N-(2,4-dichlorophenyl)-2-(4-((4-(1,3-dioxoisoindolin-2-yl)phenoxy)methyl)-1H-1,2,3-triazol-1-yl)acetamide] registered a melting point of 232 to 234 °C. This compound also returned a concentration for half-maximal inhibition (IC50) against yeast α-glucosidase of 284 ± 0.41 µM.
`Cc1cc([N+](=O)[O-])ccc1NC(=O)Cn1cc(COc2ccc(N3C(=O)c4ccccc4C3=O)cc2)nn1` [Compound 11l, 2-(4-((4-(1,3-dioxoisoindolin-2-yl)phenoxy)methyl)-1H-1,2,3-triazol-1-yl)-N-(2-methyl-4-nitrophenyl)acetamide] yielded a melting point of 228 to 230 °C. This compound yielded an IC50 against yeast α-glucosidase of 273.3 ± 0.28 µM.
On the same counts, the results for `O=C(Cn1cc(COc2ccc(N3C(=O)c4ccccc4C3=O)cc2)nn1)Nc1cccc(Cl)c1` [Compound 11f, N-(3-chlorophenyl)-2-(4-((4-(1,3-dioxoisoindolin-2-yl)phenoxy)methyl)-1H-1,2,3-triazol-1-yl)acetamide] are 210 to 212 °C and 112.16 ± 0.03 µM.
`O=C(Cn1cc(COc2ccc(N3C(=O)c4ccccc4C3=O)cc2)nn1)Nc1ccc([N+](=O)[O-])cc1` [Compound 11k, 2-(4-((4-(1,3-dioxoisoindolin-2-yl)phenoxy)methyl)-1H-1,2,3-triazol-1-yl)-N-(4-nitrophenyl)acetamide] displayed a melting point of 260 to 262 °C. In addition, on yeast α-glucosidase, the “α-glucosidase inhibitory activity in words” value is “complete loss of inhibitory activity” and the half-inhibitory concentration (IC50) was > 750 µM.
The compound `Cc1cccc(C)c1NC(=O)Cn1cc(COc2ccc(N3C(=O)c4ccccc4C3=O)cc2)nn1` [Compound 11c, N-(2,6-dimethylphenyl)-2-(4-((4-(1,3-dioxoisoindolin-2-yl)phenoxy)methyl)-1H-1,2,3-triazol-1-yl)acetamide] gave a melting point of 209 to 211 °C. Further, the “α-glucosidase inhibitory activity in words” value on yeast α-glucosidase was “inactive”.
For the compound `O=C(Cn1cc(COc2ccc(N3C(=O)c4ccccc4C3=O)cc2)nn1)NCc1ccc(F)cc1` [Compound 11n, 2-(4-((4-(1,3-dioxoisoindolin-2-yl)phenoxy)methyl)-1H-1,2,3-triazol-1-yl)-N-(4-fluorobenzyl)acetamide], the melting point fell in the range of 204 to 206 °C. On yeast α-glucosidase, half-maximal inhibition (IC50) was put at 685.99 ± 0.32 µM.
On the same counts, the results for `O=C(Cn1cc(COc2ccc(N3C(=O)c4ccccc4C3=O)cc2)nn1)Nc1c(Cl)cccc1Cl` [Compound 11i, N-(2,6-dichlorophenyl)-2-(4-((4-(1,3-dioxoisoindolin-2-yl)phenoxy)methyl)-1H-1,2,3-triazol-1-yl)acetamide] are 202 to 204 °C and 46.2 ± 0.89 µM.
Compound `O=C(Cn1cc(COc2ccc(N3C(=O)c4ccccc4C3=O)cc2)nn1)Nc1ccc(Br)cc1` [Compound 11j, N-(4-bromophenyl)-2-(4-((4-(1,3-dioxoisoindolin-2-yl)phenoxy)methyl)-1H-1,2,3-triazol-1-yl)acetamide] showed a melting point of 237 to 239 °C. At yeast α-glucosidase, the “α-glucosidase inhibitory activity in words” value is “moderate anti-α-glucisidase activity” and the half-inhibitory concentration (IC50) is 45.26 ± 0.03 µM. Moreover, on α-glucosidase (Lineweaver–Burk plot), the Inhibition mode entry is listed as “competitive inhibitor”. The compound further gave a Ki at α-glucosidase (secondary re-plot of Lineweaver–Burk slopes, substrate p-nitrophenyl-a-D-glucopyranoside) of 50.4 µM.
`O=C(Cn1cc(COc2ccc(N3C(=O)c4ccccc4C3=O)cc2)nn1)Nc1ccccc1` [Compound 11a, 2-(4-((4-(1,3-dioxoisoindolin-2-yl)phenoxy)methyl)-1H-1,2,3-triazol-1-yl)-N-phenylacetamide] returned a melting point of 218 to 220 °C. The IC50 on yeast α-glucosidase was 203.8 ± 0.32 µM.
With `O=C(Cn1cc(COc2ccc(N3C(=O)c4ccccc4C3=O)cc2)nn1)Nc1cccc(Cl)c1Cl` [Compound 11g, N-(2,3-dichlorophenyl)-2-(4-((4-(1,3-dioxoisoindolin-2-yl)phenoxy)methyl)-1H-1,2,3-triazol-1-yl)acetamide], the melting point lay within 203 to 205 °C. At yeast α-glucosidase, the “α-glucosidase inhibitory activity in words” value is “moderate anti-α-glucisidase activity” and the IC50 is 239.1 ± 0.41 µM.
As to `Cc1cccc(NC(=O)Cn2cc(COc3ccc(N4C(=O)c5ccccc5C4=O)cc3)nn2)c1C` [Compound 11b, N-(2,3-dimethylphenyl)-2-(4-((4-(1,3-dioxoisoindolin-2-yl)phenoxy)methyl)-1H-1,2,3-triazol-1-yl)acetamide], the melting point fell in the range of 206 to 208 °C. The “Fold less potent than compound 11a” value on yeast α-glucosidase (ratio of IC50 values) is recorded as 1.8 fold. The same compound displayed a half-maximal inhibitory concentration (IC50) against yeast α-glucosidase of 366.1 ± 0.86 µM.

What is called melting point is the temperature of the solid-liquid transition. Usually IC50 stands for the concentration needed to halve the response being measured. A higher IC50 goes with weaker potency. One may read the Ki as the equilibrium dissociation constant of an inhibitor or competing ligand from its target. Low values mean higher affinity, high ones lower affinity.
